Assay results taken from patent US8187572B2, “Diabetogenic rat model” (Hoffmann-La Roche Inc., priority 2005, dated 2012).

What was measured:
Type in all cases: in vivo, rat
ZDF rats [1] = test: Intervention treatment with Pioglitazone in ZDF rats: post-prandial blood and plasma parameters; settings: for average plasma TG level: at the end of treatment
Protocol: ZDF and ZL rats were ordered at the age of 5 W. After arrival and following 1 week of adaptation, 1 ml of blood was collected retro-orbitally after a short narcosis (isoflurane) in 6 W-old rats. […] A group of 10 ZL rats was formed and followed as a control group along the study duration (FIG. 3). Three groups of ZDF rats receive either vehicle (untreated) or Pioglitazone (treated) as food Admix. In each untreated/treated group of ZDF rats, one is fed a high fat diet during 11 weeks (group_full), during 4 weeks (group_mild) or during 2 weeks (group_low). Treatment was administered orally and prepared as food-admix. This mode of administration was preferred over oral gavage to reduce stress to the animals, avoid dosing errors and minimize handling. Pioglitazone (sufficient for 90 kg food) was dissolved in 18 liters of water. For the three treatment groups of 10 rats each, 6 liters of solution was combined with 30 kg of the diabetogenic diet (KLIBA 2437 with 7% of fat) or 12 liters were mixed with 60 Kg of the chow diet (Kliba 3436). The food was carefully dried at a temperature not exceeding 40° C. and then pelleted. […] The graphs and tables present the data according to expected daily dose. […] Blood sampling was always performed in the morning (9-11 am) 2-to-5 hours after feeding session and 2 h after last oral dosing (food was removed at 7:00 am). Blood (≈200 μl) was harvested retro-orbitally from slightly anesthetized rats (isoflurane) into tubes containing EDTA and kept on ice bed until centrifugation (6000 RPM for 20 minutes at 4° C.). […] Main plasma biochemical parameters (glucose(Gluco-quant, e.g. […] Quantification of HbA1c (%) was performed in whole blood, using an immuno-turbidimetric assay (Tina-quant, e.g. 11822039 from Roche Molecular Diagnostics). Glycosylated haemoglobin (HbA1c) is formed by the non-enzymatic covalent attachment of glucose to normal haemoglobin (HbA). […] HbA1c is a predictor of diabetic complications and interventions that reduce HbA1c correspondingly reduce the risk of complications (UKPDS, 1998). […] Commercially available ELISA kits (LINCO®) were used to quantify plasma concentration of insulin and adiponectin. Adiponectin is an adipokine which is […] and fasting plasma insulin concentration (Goldstein, 2002). Adiponectin plasma concentrations are decreased in […] patients and despite the fact that it is produced by adipocytes, as an individual becomes more obese, the adiponectine is decreased and insulin resistance increases ([…] et al., 1999).

ZDF rats [2] = test: Oral glucose tolerance test (OGTT) with fasting parameters and HOMA in Pioglitazone-treated ZDF rats; settings: for HOMA (insulin resistance index) / fasting insulin levels: after 6 weeks of treatment
Protocol: ZDF and ZL rats were ordered at the age of 5 W. After arrival and following 1 week of adaptation, 1 ml of blood was collected retro-orbitally after a short narcosis (isoflurane) in 6 W-old rats. […] A group of 10 ZL rats was formed and followed as a control group along the study duration (FIG. 3). Three groups of ZDF rats receive either vehicle (untreated) or Pioglitazone (treated) as food Admix. In each untreated/treated group of ZDF rats, one is fed a high fat diet during 11 weeks (group_full), during 4 weeks (group_mild) or during 2 weeks (group_low). Treatment was administered orally and prepared as food-admix. This mode of administration was preferred over oral gavage to reduce stress to the animals, avoid dosing errors and minimize handling. Pioglitazone (sufficient for 90 kg food) was dissolved in 18 liters of water. For the three treatment groups of 10 rats each, 6 liters of solution was combined with 30 kg of the diabetogenic diet (KLIBA 2437 with 7% of fat) or 12 liters were mixed with 60 Kg of the chow diet (Kliba 3436). The food was carefully dried at a temperature not exceeding 40° C. and then pelleted. […] The graphs and tables present the data according to expected daily dose. […] Blood was then collected in conscious animals (tail vein) for baseline glucose and insulin measurements. […] Studying the evolution of blood glucose concentration along time after a load of glucose will give information about the ability of the organism to use glucose. Using the trapezoidal rule, glucose tolerance was calculated as area under the curve (AUC) of glucose concentration during 120 min and the change from baseline was calculated (delta AUC). HOMA index is also assessed during the OGTT by considering fasting insulin and fasting blood glucose (FBG) levels. HOMA: [FBG (mM)*(Fasting Insulin (μU))/22.5]. HOMA-index translates peripheral insulin resistance. Measurement of insulin was performed using Mercodia Rat Insulin ELISA kit.

[3] = Body weight, food intake and water intake of Pioglitazone-treated ZDF rats; settings: ZDF rats group_low, group_mild and group_full; chronic treatment (7 weeks), 10 mg/kg/d food-admix
Protocol: ZDF and ZL rats were ordered at the age of 5 W. After arrival and following 1 week of adaptation, 1 ml of blood was collected retro-orbitally after a short narcosis (isoflurane) in 6 W-old rats. […] A group of 10 ZL rats was formed and followed as a control group along the study duration (FIG. 3). Three groups of ZDF rats receive either vehicle (untreated) or Pioglitazone (treated) as food Admix. In each untreated/treated group of ZDF rats, one is fed a high fat diet during 11 weeks (group_full), during 4 weeks (group_mild) or during 2 weeks (group_low). Treatment was administered orally and prepared as food-admix. This mode of administration was preferred over oral gavage to reduce stress to the animals, avoid dosing errors and minimize handling. Pioglitazone (sufficient for 90 kg food) was dissolved in 18 liters of water. For the three treatment groups of 10 rats each, 6 liters of solution was combined with 30 kg of the diabetogenic diet (KLIBA 2437 with 7% of fat) or 12 liters were mixed with 60 Kg of the chow diet (Kliba 3436). The food was carefully dried at a temperature not exceeding 40° C. and then pelleted. […] The graphs and tables present the data according to expected daily dose. […] Body weight and food consumption were recorded with an on-line data acquisition system ([…]) using electronic balances.

## CCc1ccc(CCOc2ccc(CC3SC(=O)NC3=O)cc2)nc1.Cl (racemic) [Pioglitazone, (±)-5-[[4-[2-(5-ethyl-2-pyridinyl)ethoxy]phenyl]methyl]-2,4-]
ZDF rats [1]; any of the treatment groups
  plasma total cholesterol levels: did not change
ZDF rats [1]; group_full (fully diabetic ZDF rats)
  reduction of plasma triglyceride levels compared to vehicle: 69.5±5.2%
ZDF rats [1]; group_full ZDF rats, 10 mg/kg
  HbA1C: significant reduction
ZDF rats [1]; group_full ZDF rats, apparent after 2 weeks, partially maintained, 10 mg/kg
  blood glucose levels: strongly reduced
ZDF rats [1]; group_full ZDF rats, at the beginning of treatment, effect gone after 5 weeks
  hyperinsulinemia: significantly reduced
ZDF rats [1]; group_full
  average plasma TG level: 2.8 ± 0.5 mM
ZDF rats [1]; group_full, compared with ZL 1.1±0.1
  plasma TG levels: 2.9 ± 0.6 mM
ZDF rats [1]; group_full, data not shown
  plasma NEFA levels: moderate improvement
ZDF rats [1]; group_low
  hypertriglyceridemia: almost completely and immediately normalized
  average plasma TG level: 1.6 ± 0.1 mM
ZDF rats [1]; group_low (moderately diabetic ZDF rats), values similar to untreated ZL rats
  development of hyperglycaemia and increase in HbA1c: fully prevented
ZDF rats [1]; group_low, end of the 7 week treatment period, ZL 0.8±0.1
  insulin levels: 2.1 ± 0.2 ng/mL
ZDF rats [1]; group_low, starting at week 2 of treatment, maintained until end of study
  hyperinsulinemia: strongly reversed
ZDF rats [2]; group_full, OGTT after 6 weeks of treatment
  improvement of glucose tolerance (AUC) compared to vehicle: 31%
ZDF rats [2]; group_full
  HOMA (insulin resistance index): 14.1±2.7
  fasting insulin levels: 2.0 ± 0.4 ng/mL
ZDF rats [2]; group_full, after 7 weeks of treatment
  FBG: 6.7 ± 0.9 mM
ZDF rats [2]; group_low, OGTT after 6 weeks of treatment
  AUC reduced compared to vehicle: 36%
ZDF rats [2]; group_low, OGTT after 6 weeks of treatment, ZL 779±15
  glucose excursion AUC: 1000±48
ZDF rats [2]; group_low
  fasting insulin levels: 1.7 ng/mL
ZDF rats [2]; group_low, ZL 2.0±0.1
  HOMA (insulin resistance index): 9.4±0.8
ZDF rats [2]; group_low, vehicle 6.9±0.4, ZL 4.3±0.0
  FBG: 5.1 ± 0.1 mM
ZDF rats [2]; group_mild, OGTT after 6 weeks of treatment
  improvement of glucose tolerance (AUC) compared to vehicle: 29%
ZDF rats [2]; group_mild
  HOMA (insulin resistance index): 10.9±1.9
  fasting insulin levels: 1.6 ± 0.3 ng/mL
ZDF rats [2]; group_mild, after 7 weeks of treatment
  FBG: 6.6 ± 1.3 mM
[3]
  increase in BW versus vehicle: ≈ 30%
